Series [1] deals with Smn protein in SMA patient fibroblast cells (GM03813). The series is described as follows: Smn protein assay in cultured cells (SMN HTRF). In kind it is cell-based, human. To be noted: SMA patient fibroblast cells, 48 hours; for EC1.5x for Smn protein expression: 7-point concentration curve, SMN HTRF, concentration producing 1.5 times Smn protein vs DMSO vehicle control; for maximum fold (Fold) increase of Smn protein: 7-point concentration data, fold relative to vehicle control. Put shortly:
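Patient-derived SMA fibroblasts are plated, given compound for 48 h, then lysed in RIPA buffer with protease inhibitors. Lysate Smn is detected by an anti-SMN d2/kryptate HTRF pair incubated overnight. The normalized ΔF is divided by the vehicle ΔF to give fold change, from which EC1.5× and maximum fold are taken.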
(In general: TR-FRET usually uses a lanthanide donor and a delayed reading to cut background.)

The test system of series [2] is SMN2 minigene mRNA (SMN2-A minigene) in HEK293H cells. Put plainly: SMN2 minigene mRNA splicing RT-qPCR assay in cultured cells. In kind it is cell-based, human. Particulars: Homo sapiens, HEK293-H; concentration increasing full length SMN2 mRNA 1.5-fold relative to vehicle-treated cells; HEK293H cells with SMN2-A minigene, 24 hours, 7-point concentration data; read-out: EC1.5x for production of full length SMN2 mRNA. The method, boiled down:
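Cells are seeded, left to attach 4-6 h, then dosed with test compound across seven concentrations and incubated 24 h. Lysates undergo RT-qPCR with primers/probe specific to the exon 7-containing minigene transcript, co-amplified with GAPDH. Fold change over vehicle is calculated, and EC1.5× marks the 1.5-fold point.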
(In general: In qPCR the cycle at which signal appears reflects the starting amount.)

In turn, `Cc1nc2ccc(-c3cc(=O)n4cc(N5CCN[C@@H](C)C5)ccc4n3)cc2s1` [Compound 221, 2-(2-methyl-1,3-benzothiazol-6-yl)-7-[(3S)-3-methylpiperazin-1-yl]-4H-pyrido[1,2-a]pyrimidin-4-one] displayed a melting point of 214 to 216 °C. Also, in series [1], the “EC1.5x for Smn protein expression” value is “**** (an EC1.5x≤0.3 μM is indicated by four stars (****))” and the “maximum fold (Fold) increase of Smn protein” value (shortened to “maximum fold (Fold) increase”) is reported as “***** (a fold increase >1.65 is indicated by five stars (*****))”. Further, the EC (1.5-fold increase) in series [2] is < 0.1 µM.
Regarding `COc1ccc(-c2cc(=O)n3cc(N4CCN5CCC[C@H]5C4)cc(C)c3n2)cc1OC` [Compound 417, 2-(3,4-dimethoxyphenyl)-7-[(8aS)-hexahydropyrrolo[1,2-a]pyrazin-2(1H)-yl]-9-methyl-4H-pyrido[1,2-a]pyrimidin-4-one], the melting point was 183 to 189 °C. In series [1], the “EC1.5x for Smn protein expression” value is “** (an EC1.5× between >1 μM and ≤3 μM is indicated by two stars (**))”; the “maximum fold (Fold) increase” value is “**** (a fold increase between >1.5 and ≤1.65 is indicated by four stars (****))”. Moreover, the EC (1.5-fold increase) in series [2] fell in the range of 0.1 to 0.3 µM.
`Cc1cn2nc(-c3cc(=O)n4cc(N5CC(N(C)C)C5)ccc4n3)cc2c(C)n1` [Compound 757, 7-[3-(dimethylamino)azetidin-1-yl]-2-(4,6-dimethylpyrazolo[1,5-a]pyrazin-2-yl)-4H-pyrido[1,2-a]pyrimidin-4-one] registered a melting point of 226 to 228 °C. Besides, in series [1], the “EC1.5x for Smn protein expression” value was “*** (an EC1.5× between >0.3 μM and ≤1 μM is indicated by three stars (***))”; the “maximum fold (Fold) increase” value was “**** (a fold increase between >1.5 and ≤1.65 is indicated by four stars (****))”. Also, the EC (1.5-fold increase) in series [2] is 0.3 to 1 µM.
The molecule `Cc1nc2ccc(-c3cc(=O)n4cc(N5CCNCC5)ccc4n3)cn2c1C` [Compound 125, 2-(2,3-dimethylimidazo[1,2-a]pyridin-6-yl)-7-(piperazin-1-yl)-4H-pyrido[1,2-a]pyrimidin-4-one] displayed a melting point of 236 to 240 °C. The “maximum fold (Fold) increase” value in series [1] is “*** (a fold increase between >1.35 and ≤1.5 is indicated by three stars (***))”. The EC (1.5-fold increase) in series [2] lay in the range of 0.3 to 1 µM.
As to `C[C@H]1CN(c2ccc3nc(-c4ccc5c(c4)OCCO5)cc(=O)n3c2)CCN1` [Compound 32, 2-(2,3-dihydro-1,4-benzodioxin-6-yl)-7-[(3S)-3-methylpiperazin-1-yl]-4H-pyrido[1,2-a]pyrimidin-4-one], the melting point lay within 205 to 207 °C. For the same molecule, the “maximum fold (Fold) increase” value in series [1] is “* (A maximum fold increase of ≤1.2 is indicated by one star (*))”. For the same molecule, the EC (1.5-fold increase) in series [2] was 1 to 3 µM.
In turn, `Cc1cn2nc(-c3cc(=O)n4cc(C#CCN)ccc4n3)cc2c(C)n1` [Compound 740, 7-(3-aminoprop-1-yn-1-yl)-2-(4,6-dimethylpyrazolo[1,5-a]pyrazin-2-yl)-4H-pyrido[1,2-a]pyrimidin-4-one] showed a melting point of 242 to 244 °C. For the same molecule, in series [1], the “EC1.5x for Smn protein expression” value was “*** (an EC1.5× between >0.3 μM and ≤1 μM is indicated by three stars (***))”; the “maximum fold (Fold) increase” value was “***** (a fold increase >1.65 is indicated by five stars (*****))”. For the same molecule, the EC (1.5-fold increase) in series [2] lay within 0.3 to 1 µM.
`Cc1cn2cc(-c3cc(=O)n4cc(N5CCN(C6CC6)CC5)ccc4n3)cc(F)c2n1` [Compound 412, 7-(4-cyclopropylpiperazin-1-yl)-2-(8-fluoro-2-methylimidazo[1,2-a]pyridin-6-yl)-4H-pyrido[1,2-a]pyrimidin-4-one] yielded a melting point of 254 to 258 °C. Also, in series [1], the “EC1.5x for Smn protein expression” value was “**** (an EC1.5x≤0.3 μM is indicated by four stars (****))” and the “maximum fold (Fold) increase” value is listed as “***** (a fold increase >1.65 is indicated by five stars (*****))”. The EC (1.5-fold increase) in series [2] was < 0.1 µM.
`CCc1nc(C)cn2nc(-c3cc(=O)n4cc(C5CCN(C6COC(C)(C)OC6)CC5)ccc4n3)cc12` [Compound 693, 7-[1-(2,2-dimethyl-1,3-dioxan-5-yl)piperidin-4-yl]-2-(4-ethyl-6-methylpyrazolo[1,5-a]pyrazin-2-yl)-4H-pyrido[1,2-a]pyrimidin-4-one] had a melting point of 236 to 238 °C. For the same molecule, in series [1], the “EC1.5x for Smn protein expression” value is “** (an EC1.5× between >1 μM and ≤3 μM is indicated by two stars (**))”; the “maximum fold (Fold) increase” value was “**** (a fold increase between >1.5 and ≤1.65 is indicated by four stars (****))”. Besides, in series [2], the EC (1.5-fold increase) was in the range of 1 to 3 µM.
Molecule `CCNC1CCN(c2cc(C)c3nc(-c4cc5c(C)nc(C)cn5n4)cc(=O)n3c2)CC1` [Compound 596, 2-(4,6-dimethylpyrazolo[1,5-a]pyrazin-2-yl)-7-[4-(ethylamino)piperidin-1-yl]-9-methyl-4H-pyrido[1,2-a]pyrimidin-4-one] registered a melting point of 228 to 236 °C. For the same molecule, in series [1], the “EC1.5x for Smn protein expression” value is on record as “**** (an EC1.5x≤0.3 μM is indicated by four stars (****))”; the “maximum fold (Fold) increase” value is “**** (a fold increase between >1.5 and ≤1.65 is indicated by four stars (****))”. For the same molecule, the EC (1.5-fold increase) in series [2] is < 0.1 µM.
Turning to `CCc1cc(-c2cc(=O)n3cc(C4CCNCC4)ccc3n2)cn2cc(C)nc12` [Compound 696, 2-(8-ethyl-2-methylimidazo[1,2-a]pyridin-6-yl)-7-(piperidin-4-yl)-4H-pyrido[1,2-a]pyrimidin-4-one], the melting point is 221 to 224 °C. For the same molecule, in series [1], the “EC1.5x for Smn protein expression” value is reported as “**** (an EC1.5x≤0.3 μM is indicated by four stars (****))” and the “maximum fold (Fold) increase” value is reported as “***** (a fold increase >1.65 is indicated by five stars (*****))”. Besides, the EC (1.5-fold increase) in series [2] is < 0.1 µM.
Regarding `COc1ccc(-c2cc(=O)n3cc(N4CCC(CN5CCCC5)CC4)ccc3n2)cc1OC` [Compound 574, 2-(3,4-dimethoxyphenyl)-7-[4-(pyrrolidin-1-ylmethyl)piperidin-1-yl]-4H-pyrido[1,2-a]pyrimidin-4-one], the melting point was in the range of 194 to 196 °C. Moreover, the “maximum fold (Fold) increase” value in series [1] is “** (a fold increase between >1.2 and ≤1.35 is indicated by two stars (**))”. In series [2], the EC (1.5-fold increase) was in the range of 0.3 to 1 µM.
Molecule `C[C@H]1CN(c2ccc3nc(-c4cncc(Cl)c4)cc(=O)n3c2)CCN1` [Compound 95, 2-(5-chloropyridin-3-yl)-7-[(3S)-3-methylpiperazin-1-yl]-4H-pyrido[1,2-a]pyrimidin-4-one] showed a melting point of 227 to 232 °C. For the same molecule, in series [1], the “EC1.5x for Smn protein expression” value is “** (an EC1.5× between >1 μM and ≤3 μM is indicated by two stars (**))”; the “maximum fold (Fold) increase” value was “**** (a fold increase between >1.5 and ≤1.65 is indicated by four stars (****))”. Also, the EC (1.5-fold increase) in series [2] is 1 to 3 µM.
In the case of `COc1cc(F)c(-c2cc(=O)n3cc(N4CCNCC4)ccc3n2)cc1OC` [Compound 64, 2-(2-fluoro-4,5-dimethoxyphenyl)-7-(piperazin-1-yl)-4H-pyrido[1,2-a]pyrimidin-4-one], the melting point lay within 177 to 180 °C. Besides, in series [1], the “maximum fold (Fold) increase” value was “** (a fold increase between >1.2 and ≤1.35 is indicated by two stars (**))”. Also, in series [2], the EC (1.5-fold increase) fell in the range of 3 to 30 µM.
In turn, `COc1ccc(-c2cc(=O)n3cc(N4C[C@H]5CCN(C)[C@H]5C4)ccc3n2)cc1F` [Compound 246, 2-(3-fluoro-4-methoxyphenyl)-7-[(3aR,6aR)-1-methylhexahydropyrrolo[3,4-b]pyrrol-5(1H)-yl]-4H-pyrido[1,2-a]pyrimidin-4-one] showed a melting point of 205 to 209 °C. In addition, the “maximum fold (Fold) increase” value in series [1] is “* (A maximum fold increase of ≤1.2 is indicated by one star (*))”. For the same molecule, in series [2], the EC (1.5-fold increase) is 1 to 3 µM.
With `CCOc1cc(-c2cc(=O)n3cc(N4CCN[C@@H](C)C4)ccc3n2)ccc1OC` [Compound 113, 2-(3-ethoxy-4-methoxyphenyl)-7-[(3S)-3-methylpiperazin-1-yl]-4H-pyrido[1,2-a]pyrimidin-4-one], the melting point was in the range of 159 to 162 °C. The “maximum fold (Fold) increase” value in series [1] was “*** (a fold increase between >1.35 and ≤1.5 is indicated by three stars (***))”. Moreover, the EC (1.5-fold increase) in series [2] lay in the range of 1 to 3 µM.
In turn, `Cc1cc2cc(-c3cc(=O)n4cc(N5CCN(C)CC5)ccc4n3)oc2c(C)n1` [Compound 487, 2-(5,7-dimethylfuro[2,3-c]pyridin-2-yl)-7-(4-methylpiperazin-1-yl)-4H-pyrido[1,2-a]pyrimidin-4-one] gave a melting point of 256 to 258 °C. In series [1], the “EC1.5x for Smn protein expression” value is “**** (an EC1.5x≤0.3 μM is indicated by four stars (****))”; the “maximum fold (Fold) increase” value is “**** (a fold increase between >1.5 and ≤1.65 is indicated by four stars (****))”. In addition, in series [2], the EC (1.5-fold increase) lay within 0.1 to 0.3 µM.
As to `Cc1nc2ccc(-c3cc(=O)n4cc(N5CCN(C)CC5)ccc4n3)cc2s1` [Compound 256, 2-(2-methyl-1,3-benzothiazol-6-yl)-7-(4-methylpiperazin-1-yl)-4H-pyrido[1,2-a]pyrimidin-4-one], the melting point lay within 230 to 234 °C. For the same molecule, in series [1], the “EC1.5x for Smn protein expression” value was “** (an EC1.5× between >1 μM and ≤3 μM is indicated by two stars (**))”; the “maximum fold (Fold) increase” value was “**** (a fold increase between >1.5 and ≤1.65 is indicated by four stars (****))”. In addition, the EC (1.5-fold increase) in series [2] was 0.3 to 1 µM.

One may read the melting point as the temperature of the solid-liquid transition.
